The record followed here is US3931198A, “2-Amino-5-spiro substituted oxazoline-4-one compounds” (Abbott Laboratories, priority 1973, dated 1976).

Molecules are shown by their SMILES.

Series [1] is described as follows: LD50, lethal dosage at which 50 percent of the animals expire. The following applies: mouse, in vivo, ip; mice, intraperitoneal injection unless otherwise indicated. As for the experimental part: (§1) Table VI below details the activity of the various species of this series along with the dosages utilized expressed in mg/kg of body weight and the lethal dosage at which 50 percent of the animals expire (^LD 50) for each of the compounds. Unless otherwise indicated, the dosage and the ^LD 50 were administered by intraperitoneal injection. It is to be understood, of course, that the particular route of administration is not critical to the manifestation of biological effects.

For the next series, the system named is central nervous system. The experiment in a line: CNS activity (depressant or stimulant) in test mice. Type of series: in vivo. To be noted: i.p. How it is done:
as §1

The test system of the next series is rats. The experiment in a line: Learning and retention (escape time, jump out test) after electroconvulsive shock on a modified Cook-Weidley apparatus. Type of series: in vivo. To be noted: for Mean Escape Time, Retention Trial: 1 hour after last acquisition trial. As for the experimental part: In addition to the foregoing activity, the administration of some of these novel compounds to warm-blooded animals results in an increased rate of learning by the animal coupled with a prolonged period of retention of the learned behavior.
The behavioral effects resulting from the administration of these compounds to rats were evaluated on a modified Cook-Weidley apparatus (L. Cook and E. Weidley, Ann. N.Y. Acad. Sci., 66, 790, 1957). The apparatus consists of a chamber with a grid flooring and an escape platform outside the chamber. The electric shock to the grid floor was controlled by a rheostat mechanism and scrambler. Rats were divided into 2 groups for each test trial. One group was administered saline as the control and the other group the test compound about 1/2 hour prior to electroconvulsive shock. It is known that electroconvulsive shock induces a state of proactive amnesia or an impaired learning rate (Deutsch, J.A., 1962, Ann. Rev. Psychol., 24, 259). Then, 15 minutes after electroconvulsive shock, the rats were given 10 acquisition trials on the jump out test to measure learning rates. Each acquisition trial consisted of 15 seconds in the chamber without any stimulation followed by 10 seconds of buzzer stimulation and culminated by 5 seconds of buzzer-plus-shock stimulation. The time from entrance into the apparatus until the rat jumps out is recorded as the escape time. Retention of the learned behavioral pattern was tested by repeating the test one hour after the last acquisition trial. The test sequence for each trial was terminated upon successful completion of the task, e.g., jumping out of the chamber. EFFECT OF 2-AMINO-8-METHYL-1-OXA-3,8-DIAZASPIRO [4,5]DEC-2-EN-4-ONE INTRAPERITONEAL ADMINISTRATION Mean Escape Time -- Sec. Trial Test Cpd. -- 10 mg/kg Control ______________________________________ 1 29.8 ± 0.3 30.0 ± 0.0 2 29.5 ± 0.5 29.3 ± 0.8 3 13.8 ± 1.7 26.0 ± 2.4 4 12.0 ± 2.1 22.0 ± 3.6 5 7.0 ± 1.6 22.3 ± 3.8 6 7.8 ± 1.5 18.5 ± 1.9 7 6.5 ± 1.6 18.0 ± 2.3 8 7.0 ± 2.2 13.0 ± 2.9 9 10.8 ± 3.0 15.6 ± 2.1 10 9.0 ± 1.2 13.9 ± 1.7 Retention Trial -- 1 hour after last Acquisition Trial: 13.8 ± 1.4 15.8 ± 3.3 EFFECT OF 2-AMINO-7,7,9-TRIMETHYL-1-OXA-3-AZASPIRO [4,5]DEC-2-EN-4-ONE INTRAPERITONEAL ADMINISTRATION Mean Escape Time -- Sec. Trial Test Cpd. 20 mg/kg Control ______________________________________ 1 30.0 ± 0.0 30.0 ± 0.0 2 29.0 ± 0.4 29.5 ± 0.2 3 21.2 ± 3.0 19.7 ± 5.2 4 17.7 ± 5.4 20.2 ± 5.3 5 14.7 ± 1.8 18.0 ± 2.7 6 18.0 ± 3.9 18.5 ± 3.6 7 10.0 ± 2.1 20.2 ± 4.7 8 5.5 ± 1.8 16.5 ± 3.8 9 6.7 ± 2.5 18.7 ± 5.0 10 7.2 ± 2.8 13.7 ± 4.4 Retention Trial -- 1 hour after last Acquisition Trial: 8.0 ± 2.6 20.2 ± 3.3 EFFECT OF 2-AMINO-7,9-DIMETHYL-1-OXA-3-AZASPIRO [4,5]DEC-2-EN-4-ONE ORAL ADMINISTRATION Mean Escape Time -- Sec. Trial Test Cpd. -- 20 mg/kg Control ______________________________________ 1 30.0 ± 0.0 30.0 ± 0.0 2 29.2 ± 0.4 29.7 ± 0.2 3 20.0 ± 4.3 27.2 ± 1.8 4 7.5 ± 2.9 19.7 ± 2.4 5 4.7 ± 0.8 16.0 ± 3.2 6 7.2 ± 2.0 14.7 ± 3.6 7 8.0 ± 1.6 18.7 ± 4.5 8 10.5 ± 3.7 11.0 ± 2.6 9 7.0 ± 1.2 13.0 ± 3.2 10 7.5 ± 2.1 15.5 ± 4.1 Retention Trial -- 1 hour after last Acquisition Trial: 6.7 ± 1.4 15.7 ± 5.0 ______________________________________

As usually defined, the LD50 is the dose expected to kill half of the subjects tested. `NC1=NC(=O)C2(CCC3CCCCC3C2)O1` (stereo not drawn) [2'-amino-octahydrospiro[naphthalene-2(1H),5'-[2]oxazolin]-4'-one] had an LD50 in series [1] of over 1000 mg/kg. Also, the Activity result with central nervous system (dose 500 mg/kg) is “depressant”.
`NC1=NC(=O)C2(CC3CCC2C3)O1` (stereo not drawn) [2'-aminospiro[norbornane-2,5'-[2]oxazolin]-4'-one] gave an LD50 in series [1] of over 1000 mg/kg. In addition, in the series with central nervous system (dose 500 mg/kg), the Activity result is recorded as “depressant”.
In turn, `NC1=NC(=O)C2(CCNCC2)O1` [2-amino-1-oxa-3,8-diazaspiro[4,5]dec-2-en-4-one] gave an LD50 in series [1] of over 1000 mg/kg. For the same compound, the Activity entry in the series with central nervous system (dose 50 mg/kg) was “depressant”.
For `NC1=NC(=O)C2(CCCC2)O1` [2-amino-1-oxa-3-azaspiro[4,4]non-2-en-4-one], in series [1], the LD50 is over 1000 mg/kg. The Activity entry in the series on central nervous system (dose 500 mg/kg) is “depressant”.
`NC1=NC(=O)C2(CCCCC2)O1` [2-amino-1-oxa-3-azaspiro[4,5]dec-2-en-4-one]: in series [1], the LD50 is over 1000 mg/kg. The Activity entry in the series on central nervous system (dose 200 mg/kg) is “depressant”.
In series [1], `NC1=NC(=O)C2(CCCCCC2)O1` [2-amino-1-oxa-3-azaspiro[4,6]undec-2-en-4-one] returned an LD50 of over 1000 mg/kg. The Activity entry in the series with central nervous system (dose 500 mg/kg) is on record as “depressant”.
For `NC1=NC(=O)C2(CCCCCCC2)O1` [2-amino-1-oxa-3-azaspiro[4,7]dodec-2-en-4-one] the same measures were over 1000 mg/kg and “depressant”.
As for `CC1CC(C)(C)CC2(C1)OC(N)=NC2=O` (stereo not drawn) [2-amino-7,7,9-trimethyl-1-oxa-3-azaspiro[4,5]dec-2-en-4-one], the LD50 in series [1] is over 750 mg/kg. In the series on rats (intraperitoneal, 20 mg/kg), the “Mean Escape Time, Retention Trial” value worked out at 8.0 ± 2.6 s. Moreover, the “Mean Escape Time” value with rats (intraperitoneal, 20 mg/kg, acquisition trial 1) turned out to be 30.0 ± 0.0 s; in the series on rats (intraperitoneal, 20 mg/kg, acquisition trial 2), 29.0 ± 0.4 s; in the series on rats (intraperitoneal, 20 mg/kg, acquisition trial 3), 21.2 ± 3.0 s; in the series on rats (intraperitoneal, 20 mg/kg, acquisition trial 4), 17.7 ± 5.4 s; with rats (intraperitoneal, 20 mg/kg, acquisition trial 5), 14.7 ± 1.8 s; with rats (intraperitoneal, 20 mg/kg, acquisition trial 6) it was 18.0 ± 3.9 s. Moreover, the “Mean Escape Time” value with rats (intraperitoneal, 20 mg/kg, acquisition trial 7) is 10.0 ± 2.1 s; with rats (intraperitoneal, 20 mg/kg, acquisition trial 8), 5.5 ± 1.8 s; with rats (intraperitoneal, 20 mg/kg, acquisition trial 9), 6.7 ± 2.5 s; with rats (intraperitoneal, 20 mg/kg, acquisition trial 10), 7.2 ± 2.8 s. In addition, the Activity entry in the series on central nervous system (dose 0.1 mg/kg) is “stimulant”.
For the compound `CC1CC2(CC(C)N1C)OC(N)=NC2=O` (stereo not drawn) [2-amino-7,8,9-trimethyl-1-oxa-3,8-diazaspiro[4,5]-2-en-4-one], the LD50 in series [1] is over 500 mg/kg. Also, in the series with central nervous system (dose 20 mg/kg), the Activity result is on record as “depressant”.
`CC1CC2(CC(C)C1C)OC(N)=NC2=O` (stereo not drawn) [2-amino-7,8,9-trimethyl-1-oxa-3-azaspiro[4,5]dec-2-en-4-one] came in with an LD50 in series [1] of over 1000 mg/kg. Moreover, the Activity result in the series on central nervous system (dose 200 mg/kg) was “depressant”.
For `CC1CC(C)CC2(C1)OC(N)=NC2=O` (stereo not drawn) [2-amino-7,9-dimethyl-1-oxa-3-aza-spiro[4,5]dec-2-en-4-one], the LD50 in series [1] was about 300 mg/kg. Also, in the series on rats (oral, 20 mg/kg), the “Mean Escape Time, Retention Trial” value worked out at 6.7 ± 1.4 s. Besides, the “Mean Escape Time” value in the series with rats (oral, 20 mg/kg, acquisition trial 1) stood at 30.0 ± 0.0 s; in the series on rats (oral, 20 mg/kg, acquisition trial 2) it was 29.2 ± 0.4 s; in the series on rats (oral, 20 mg/kg, acquisition trial 3), 20.0 ± 4.3 s; in the series on rats (oral, 20 mg/kg, acquisition trial 4), 7.5 ± 2.9 s; in the series on rats (oral, 20 mg/kg, acquisition trial 5), 4.7 ± 0.8 s; with rats (oral, 20 mg/kg, acquisition trial 6), 7.2 ± 2.0 s. The “Mean Escape Time” value turned out to be 8.0 ± 1.6 s in the series on rats (oral, 20 mg/kg, acquisition trial 7); 10.5 ± 3.7 s in the series on rats (oral, 20 mg/kg, acquisition trial 8); 7.0 ± 1.2 s in the series on rats (oral, 20 mg/kg, acquisition trial 9); 7.5 ± 2.1 s with rats (oral, 20 mg/kg, acquisition trial 10). The Activity result in the series on central nervous system (dose 1 mg/kg) is listed as “stimulant”.
In the case of `CC1CCCC2(C1)OC(N)=NC2=O` (stereo not drawn) [2-amino-7-methyl-1-oxa-3-aza-spiro[4,5]dec-2-en-4-one], in series [1], the LD50 is about 750 mg/kg. Besides, the Activity entry with central nervous system (dose 200 mg/kg) is listed as “depressant”.
For the compound `NC1=NC(=O)C2(CCN(Cc3ccccc3)CC2)O1` [2-amino-8-benzyl-1-oxa-3,8-diazaspiro[4,5]dec-2-en-4-one], in series [1], the LD50 is over 1000 mg/kg. The Activity entry in the series on central nervous system (dose 200 mg/kg) is reported as “depressant”.
Consider `CC(C)N1CCC2(CC1)OC(N)=NC2=O` [2-amino-8-isopropyl-1-oxa-3,8-diazaspiro-[4,5]dec-2-en-4-one], for which, in series [1], the LD50 came to 1000 mg/kg. Also, the Activity result with central nervous system (dose 100 mg/kg) is listed as “depressant”.
`CC1CCC2(CC1)OC(N)=NC2=O` (stereo not drawn) [2-amino-8-methyl-1-oxa-2-aza-spiro[4,5]dec-2-en-4-one] displayed an LD50 in series [1] of over 1000 mg/kg. Moreover, the Activity result in the series with central nervous system (dose 500 mg/kg) is “depressant”.
Take `CN1CCC2(CC1)OC(N)=NC2=O` [2-amino-8-methyl-1-oxa-3,8-diazaspiro[4,5]dec-2-en-4-one]: the LD50 in series [1] was over 1000 mg/kg. The “Mean Escape Time, Retention Trial” value in the series on rats (intraperitoneal, 10 mg/kg) stood at 13.8 ± 1.4 s. Besides, the “Mean Escape Time” value was 29.8 ± 0.3 s in the series on rats (intraperitoneal, 10 mg/kg, acquisition trial 1); 29.5 ± 0.5 s in the series on rats (intraperitoneal, 10 mg/kg, acquisition trial 2); 13.8 ± 1.7 s with rats (intraperitoneal, 10 mg/kg, acquisition trial 3); 12.0 ± 2.1 s with rats (intraperitoneal, 10 mg/kg, acquisition trial 4); 7.0 ± 1.6 s in the series on rats (intraperitoneal, 10 mg/kg, acquisition trial 5); 7.8 ± 1.5 s in the series with rats (intraperitoneal, 10 mg/kg, acquisition trial 6). For the same compound, the “Mean Escape Time” value in the series on rats (intraperitoneal, 10 mg/kg, acquisition trial 7) is 6.5 ± 1.6 s; with rats (intraperitoneal, 10 mg/kg, acquisition trial 8) it was 7.0 ± 2.2 s; in the series on rats (intraperitoneal, 10 mg/kg, acquisition trial 9) it was 10.8 ± 3.0 s; in the series with rats (intraperitoneal, 10 mg/kg, acquisition trial 10), 9.0 ± 1.2 s. Also, the Activity entry in the series with central nervous system (dose 10 mg/kg) is given as “stimulant”.
In turn, `NC1=NC(=O)C2(CCN(CCc3ccccc3)CC2)O1` [2-amino-8-phenethyl-1-oxa-3,8-diazaspiro-[4,5]dec-2-en-4-one] registered an LD50 in series [1] of over 1000 mg/kg. For the same compound, in the series with central nervous system (dose 200 mg/kg), the Activity result is reported as “depressant”.
For `NC1=NC(=O)C2(CCC2)O1` [6-amino-5-oxa-7-azaspiro[3,4]oct-6-en-8-one] the same measures were over 500 mg/kg and “depressant”.
